Activity calls are given as the source filed them. The rule behind the calls is not given here.
Tested on: CCRIS mutagenicity, Ames/micronucleus/aberration tests
Assay: CCRIS mutagenicity studies
[1] = Test System: AMES SALMONELLA TYPHIMURIUM, Strain/Indicator: TA97, Metabolic Activation: NONE, Method: PREINCUBATION
[2] = Test System: AMES SALMONELLA TYPHIMURIUM, Strain/Indicator: TA98, Metabolic Activation: NONE, Method: PREINCUBATION
[3] = Test System: AMES SALMONELLA TYPHIMURIUM, Strain/Indicator: TA100, Metabolic Activation: NONE, Method: PREINCUBATION
[4] = Test System: AMES SALMONELLA TYPHIMURIUM, Strain/Indicator: TA1535, Metabolic Activation: NONE, Method: PREINCUBATION
[5] = Test System: AMES SALMONELLA TYPHIMURIUM, Strain/Indicator: TA98, Metabolic Activation: NONE, Method: STANDARD PLATE

For Nc1cc(Cl)cc(S(=O)(=O)O)c1O, the mutagenic call (Test System: AMES SALMONELLA TYPHIMURIUM, Strain/Indicator: TA97, Metabolic Activation: HAMSTER, LIVER, S-9, AROCLOR 1254 (10 OR 30%), Method: PREINCUBATION) was “inactive; negative”, the mutagenic call [1] was “inactive; negative” and the mutagenic call (Test System: AMES SALMONELLA TYPHIMURIUM, Strain/Indicator: TA97, Metabolic Activation: RAT, LIVER, S-9, AROCLOR 1254 (10 OR 30%), Method: PREINCUBATION) was “inactive; negative”. The mutagenic call (Test System: AMES SALMONELLA TYPHIMURIUM, Strain/Indicator: TA98, Metabolic Activation: HAMSTER, LIVER, S-9, AROCLOR 1254 (10 OR 30%), Method: PREINCUBATION) was “inactive; negative”, the mutagenic call [2] was “inactive; negative” and the mutagenic call (Test System: AMES SALMONELLA TYPHIMURIUM, Strain/Indicator: TA98, Metabolic Activation: RAT, LIVER, S-9, AROCLOR 1254 (10 OR 30%), Method: PREINCUBATION) was “inactive; negative”. For the same compound, the mutagenic call (Test System: AMES SALMONELLA TYPHIMURIUM, Strain/Indicator: TA100, Metabolic Activation: HAMSTER, LIVER, S-9, AROCLOR 1254 (10 OR 30%), Method: PREINCUBATION) was “inactive; negative”, the mutagenic call [3] was “inactive; negative” and the mutagenic call (Test System: AMES SALMONELLA TYPHIMURIUM, Strain/Indicator: TA100, Metabolic Activation: RAT, LIVER, S-9, AROCLOR 1254 (10 OR 30%), Method: PREINCUBATION) was “inactive; negative”. The mutagenic call (Test System: AMES SALMONELLA TYPHIMURIUM, Strain/Indicator: TA1535, Metabolic Activation: HAMSTER, LIVER, S-9, AROCLOR 1254 (10 OR 30%), Method: PREINCUBATION) was “inactive; negative”, the mutagenic call [4] was “inactive; negative” and the mutagenic call (Test System: AMES SALMONELLA TYPHIMURIUM, Strain/Indicator: TA1535, Metabolic Activation: RAT, LIVER, S-9, AROCLOR 1254 (10 OR 30%), Method: PREINCUBATION) was “inactive; negative”.

For Cc1ccc(S(=O)(=O)n2ncc(Cl)c(Cl)c2=O)cc1, the mutagenic call [5] was “inactive; negative”, the mutagenic call (Test System: AMES SALMONELLA TYPHIMURIUM, Strain/Indicator: TA98, Metabolic Activation: RAT, LIVER, S-9, AROCLOR 1254, Method: STANDARD PLATE) was “inactive; negative” and the mutagenic call (Test System: AMES SALMONELLA TYPHIMURIUM, Strain/Indicator: TA100, Metabolic Activation: NONE, Method: STANDARD PLATE) was “inactive; negative”. The mutagenic call (Test System: AMES SALMONELLA TYPHIMURIUM, Strain/Indicator: TA100, Metabolic Activation: RAT, LIVER, S-9, AROCLOR 1254, Method: STANDARD PLATE) was “inactive; negative”, the mutagenic call (Test System: AMES SALMONELLA TYPHIMURIUM, Strain/Indicator: TA1535, Metabolic Activation: NONE, Method: STANDARD PLATE) was “inactive; negative” and the mutagenic call (Test System: AMES SALMONELLA TYPHIMURIUM, Strain/Indicator: TA1535, Metabolic Activation: RAT, LIVER, S-9, AROCLOR 1254, Method: STANDARD PLATE) was “inactive; negative”. For the same compound, the mutagenic call (Test System: AMES SALMONELLA TYPHIMURIUM, Strain/Indicator: TA1537, Metabolic Activation: NONE, Method: STANDARD PLATE) was “inactive; negative” and the mutagenic call (Test System: AMES SALMONELLA TYPHIMURIUM, Strain/Indicator: TA1537, Metabolic Activation: RAT, LIVER, S-9, AROCLOR 1254, Method: STANDARD PLATE) was “inactive; negative”.

O=[N+]([O-])c1ccc2c(c1)CC=C2 was tested, and the mutagenic call [5] was “active; positive”.

CC(=O)Nc1ccccc1N was tested, and the mutagenic call (Test System: AMES SALMONELLA TYPHIMURIUM, Strain/Indicator: TA97, Metabolic Activation: HAMSTER, LIVER, S-9, AROCLOR 1254 (10%), Method: PREINCUBATION) was “active; positive”, the mutagenic call [1] was “active; positive” and the mutagenic call (Test System: AMES SALMONELLA TYPHIMURIUM, Strain/Indicator: TA97, Metabolic Activation: RAT, LIVER, S-9, AROCLOR 1254 (10%), Method: PREINCUBATION) was “active; positive”. For the same compound, the mutagenic call (Test System: AMES SALMONELLA TYPHIMURIUM, Strain/Indicator: TA98, Metabolic Activation: HAMSTER, LIVER, S-9, AROCLOR 1254 (10%), Method: PREINCUBATION) was “active; positive”, the mutagenic call [2] was “inactive; negative” and the mutagenic call (Test System: AMES SALMONELLA TYPHIMURIUM, Strain/Indicator: TA98, Metabolic Activation: RAT, LIVER, S-9, AROCLOR 1254 (10%), Method: PREINCUBATION) was “active; positive”. For the same compound, the mutagenic call (Test System: AMES SALMONELLA TYPHIMURIUM, Strain/Indicator: TA100, Metabolic Activation: HAMSTER, LIVER, S-9, AROCLOR 1254 (10%), Method: PREINCUBATION) was “active; positive”, the mutagenic call [3] was “inactive; negative” and the mutagenic call (Test System: AMES SALMONELLA TYPHIMURIUM, Strain/Indicator: TA100, Metabolic Activation: RAT, LIVER, S-9, AROCLOR 1254 (10%), Method: PREINCUBATION) was “active; positive”. The mutagenic call (Test System: AMES SALMONELLA TYPHIMURIUM, Strain/Indicator: TA1535, Metabolic Activation: HAMSTER, LIVER, S-9, AROCLOR 1254 (10%), Method: PREINCUBATION) was “active; positive”, the mutagenic call [4] was “inactive; negative” and the mutagenic call (Test System: AMES SALMONELLA TYPHIMURIUM, Strain/Indicator: TA1535, Metabolic Activation: RAT, LIVER, S-9, AROCLOR 1254 (10%), Method: PREINCUBATION) was “active; positive”.

C1=Cc2c3ccccc3cc3c2c1cc1ccccc13 was tested, and the mutagenic call (Test System: CHINESE HAMSTER OVARY, Strain/Indicator: V-79/6-THIOGUANINE, Metabolic Activation: RAT, LIVER, S-9, AROCLOR 1254, Method: FLASK ASSAY) was “active; positive” and the mutagenic call (Test System: CHINESE HAMSTER V-79, Strain/Indicator: V-79/6-THIOGUANINE, Metabolic Activation: RAT, LIVER, S-9, AROCLOR 1254, Method: SUSPENSION/PLATE) was “active; positive”.

With CC1CN(/N=C/c2ccc([N+](=O)[O-])o2)C(=O)N1 (stereo unspecified) the mutagenic call (Test System: AMES SALMONELLA TYPHIMURIUM, Strain/Indicator: TA100, Metabolic Activation: RAT, LIVER, S-9, KC500 OR PHENOBARBITAL, Method: LIQUID SUSPENSION) was “active; positive”.
